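Assay format: 96-well plates, 48-hour exposure. GI50 is the concentration that inhibits growth by half. At the TGI there is no net growth.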
Experiments:
Test in all cases: DTP human tumour cell line panel, 48 h
[1] = tested on: A549 NSCLC
[2] = tested on: K-562 leukemia
[3] = tested on: HL-60(TB) leukemia
[4] = tested on: UO-31 renal
[5] = tested on: SN12C renal
[6] = tested on: MDA-MB-435
[7] = tested on: SF-268 CNS
[8] = tested on: UACC-257 melanoma
[9] = tested on: SK-OV-3 ovarian
[10] = tested on: HOP-62 NSCLC

Structure (SMILES)	TGI [1]	TGI [2]	TGI [3]	TGI [4]	TGI [5]	TGI [6]	TGI [7]	TGI [8]	TGI [9]	TGI [10]	GI50 [1]	GI50 [2]	GI50 [3]	GI50 [4]	GI50 [5]	GI50 [6]	GI50 [7]	GI50 [8]	GI50 [9]	GI50 [10]
CC12CC(C/C1=N/O)C(C)(C)C2 (stereo not given)	> 100 µM	> 100 µM	> 100 µM	> 100 µM	> 100 µM	> 100 µM	> 100 µM	> 100 µM	> 100 µM	> 100 µM	–	–	–	–	–	–	–	–	–	–
CC(C)C1CC(CO)(CNc2cc(Cl)nc(N)n2)C1 (stereo not given)	> 100 µM	> 100 µM	> 100 µM	> 100 µM	> 100 µM	> 100 µM	> 100 µM	> 100 µM	> 100 µM	> 100 µM	–	–	–	–	–	–	–	–	–	–
CC(C)(C)c1c(C(C)(C)C)c(=O)c1=O	> 100 µM	> 100 µM	> 100 µM	> 100 µM	> 100 µM	> 100 µM	> 100 µM	> 100 µM	> 100 µM	> 100 µM	–	–	–	–	–	–	–	–	–	–
COC(=O)C(C(=O)C(=O)NC1Nc2ccc(C)cc2S1)c1nc2ccc(Cl)cc2[nH]c1=O (stereo not given)	> 100 µM	> 100 µM	> 100 µM	> 100 µM	> 100 µM	> 100 µM	> 100 µM	> 100 µM	> 100 µM	> 100 µM	–	–	–	–	–	–	–	–	–	–
C/C(=N\Nc1ccccc1)C(CN(C)C)C(c1ccccc1)c1c(O)c2ccccc2oc1=O (stereo not given)	> 100 µM	> 100 µM	> 100 µM	> 100 µM	> 100 µM	> 100 µM	> 100 µM	> 100 µM	> 100 µM	> 100 µM	–	–	–	–	–	–	–	–	–	–
O=C1OI(C#Cc2ccccc2)c2ccccc21	39.7 µM	6.7 µM	7.82 µM	14.3 µM	22.6 µM	14.1 µM	9.96 µM	25.2 µM	26.1 µM	22.6 µM	–	–	–	–	–	–	–	–	–	–
CC1=C2C(=O)c3ccccc3C(=O)[C@H]2C[C@@H](N2CCCCCC2=O)O1	39.7 µM	53.4 µM	46.3 µM	33.3 µM	34.5 µM	29.7 µM	36.3 µM	31.2 µM	> 100 µM	33 µM	–	–	–	–	–	–	–	–	–	–
c1ccc([P+](c2ccccc2)(c2ccccc2)c2ccc([P+](c3ccccc3)(c3ccccc3)c3ccccc3)cc2)cc1	> 100 µM	> 100 µM	> 100 µM	> 100 µM	> 100 µM	> 100 µM	> 100 µM	> 100 µM	> 100 µM	> 100 µM	–	–	–	–	–	–	–	–	–	–
Oc1[nH]c2ccccc2c1/C=c1/cc2c(c(-c3ccc(C(F)(F)F)cc3)n1)=Nc1ccccc1-2	28.8 µM	14.9 µM	9.25 µM	20.7 µM	> 100 µM	10 µM	38.8 µM	42.3 µM	56.6 µM	27.3 µM	4.79 µM	2.57 µM	3.41 µM	2.55 µM	27.9 µM	0.403 µM	10.3 µM	13.6 µM	13.8 µM	12.3 µM
O=C1CSc2nnc(CCCCCCCCc3nnc4n3NC(=O)CS4)n2N1	> 100 µM	> 100 µM	> 100 µM	> 100 µM	> 100 µM	> 100 µM	> 100 µM	> 100 µM	> 100 µM	> 100 µM	–	–	–	–	–	–	–	–	–	–
CC(C)(C)OC(=O)N1CCc2c(n(C/C=C/c3ccccc3)[nH]c2=O)C1	> 100 µM	> 100 µM	> 100 µM	> 100 µM	> 100 µM	> 100 µM	> 100 µM	> 100 µM	> 100 µM	> 100 µM	–	–	–	–	–	–	–	–	–	–
NC(=O)C1=CC2C3C=CC2(O)C(=O)OC3O1 (stereo not given)	> 100 µM	> 100 µM	10.5 µM	13.7 µM	20 µM	16.5 µM	20.9 µM	7.44 µM	57.4 µM	29.9 µM	–	–	–	–	–	–	–	–	–	–
COC1=CC(=O)C2=C(C1=O)[C@H]1CC[C@]3(C)[C@@H](OC(C)=O)CC[C@H]3[C@@H]1CC2	> 100 µM	> 100 µM	40.4 µM	> 100 µM	> 100 µM	38.2 µM	> 100 µM	> 100 µM	> 100 µM	> 100 µM	–	–	–	–	–	–	–	–	–	–
O=P(O)(O)CN1CCNCCN(CP(=O)(O)O)CCNCC1	> 100 µM	> 100 µM	15.2 µM	> 100 µM	> 100 µM	> 100 µM	> 100 µM	> 100 µM	> 100 µM	> 100 µM	–	–	–	–	–	–	–	–	–	–
CC(C)CCCC(C)[C@H]1CC[C@H]2N=C(Nc3ccccc3)CCC[C@]12C (stereo not given in full)	14.5 µM	3.55 µM	4.7 µM	3.12 µM	3.48 µM	3.75 µM	7.17 µM	4.85 µM	4.11 µM	6.12 µM	–	–	–	–	–	–	–	–	–	–
O=c1oc2ccc(Cl)cc2cc1-c1cn2ccsc2n1	> 100 µM	> 100 µM	85.1 µM	> 100 µM	> 100 µM	> 100 µM	> 100 µM	> 100 µM	> 100 µM	> 100 µM	–	–	–	–	–	–	–	–	–	–
Cc1c2cccc-2ccc2c1[nH]c1ccccc12	5.65 µM	11 µM	9.38 µM	3.14 µM	7.01 µM	4.68 µM	4 µM	3.12 µM	11 µM	12.9 µM	–	–	–	–	–	–	–	–	–	–
Cn1c(=O)sc2cc(C(=S)N3CCOCC3)ccc21	> 100 µM	> 100 µM	> 100 µM	> 100 µM	> 100 µM	> 100 µM	> 100 µM	> 100 µM	> 100 µM	> 100 µM	–	–	–	–	–	–	–	–	–	–

Structure (SMILES)	TGI [1]	TGI [2]	TGI [3]	TGI [4]	TGI [5]	TGI [6]	TGI [7]	TGI [8]	TGI [9]	TGI [10]	GI50 [1]	GI50 [2]	GI50 [3]	GI50 [4]	GI50 [5]	GI50 [6]	GI50 [7]	GI50 [8]	GI50 [9]	GI50 [10]
COC(=O)C(NC(=O)CSc1nnc(COc2ccc(Cl)cc2)n1-c1ccccc1)C(C)C (stereo not given)	> 100 µM	> 100 µM	> 100 µM	> 100 µM	37.1 µM	43 µM	44.9 µM	34 µM	> 100 µM	35.2 µM	–	–	–	–	–	–	–	–	–	–
O=C(/C=C/c1ccco1)c1cccc(C(=O)/C=C/c2ccco2)n1	> 100 µM	> 100 µM	0.417 µM	24.9 µM	32 µM	> 100 µM	> 38.9 µM	> 100 µM	> 100 µM	> 88.6 µM	–	–	–	–	–	–	–	–	–	–
COc1ccc(C=Nc2ccc(-c3nc4ccccc4[nH]3)cc2)cc1OC	> 100 µM	> 100 µM	> 100 µM	> 100 µM	> 100 µM	> 100 µM	> 100 µM	> 100 µM	> 100 µM	> 100 µM	–	–	–	–	–	–	–	–	–	–
CCCCCCOP(=O)(OCCCCCC)OC(C(=O)OC)C(F)(F)F (stereo not given)	> 100 µM	> 100 µM	> 100 µM	> 100 µM	> 100 µM	> 100 µM	> 100 µM	> 100 µM	> 100 µM	> 100 µM	–	–	–	–	–	–	–	–	–	–
CCCNC(=O)CCC(C)[C@H]1CCC2C3C(C[C@H](OC(C)=O)[C@@]21C)[C@@]1(C)CCC2(C[C@H]1C[C@H]3OC(C)=O)OOC1(CCCCC1)OO2 (stereo not given in full)	2.82 µM	> 60.8 µM	3.94 µM	0.232 µM	16 µM	9.92 µM	10.4 µM	> 100 µM	> 100 µM	1.34 µM	–	–	–	–	–	–	–	–	–	–
CC/C(Cl)=N\OC(=O)Nc1ccc(F)cc1F	39.8 µM	2.34 µM	4.31 µM	29.4 µM	11.5 µM	34.2 µM	> 57.7 µM	34.2 µM	37.4 µM	46.1 µM	–	–	–	–	–	–	–	–	–	–
CC(C)=CCC[C@@H](C)c1c2[nH]c3ccccc3sc-2c(C)c(=O)c1=O	35.6 µM	> 75 µM	5.02 µM	14.4 µM	67.2 µM	> 75 µM	> 35.3 µM	> 75 µM	> 75 µM	24.9 µM	–	–	–	–	–	–	–	–	–	–
COC(=O)c1ccc(/C=C2\CCc3ccccc3C2=O)cc1	> 100 µM	> 100 µM	> 100 µM	> 100 µM	> 100 µM	> 100 µM	> 100 µM	> 100 µM	> 100 µM	> 100 µM	–	–	–	–	–	–	–	–	–	–
O=S(=O)(O)C1CCC(O)C2[N-]CCCC21.O=S(=O)(O)C1CCC(O)C2[N-]CCCC21.[Zn+2] (stereo not given)	> 100 µM	> 100 µM	51 µM	> 100 µM	> 100 µM	> 100 µM	> 100 µM	> 100 µM	> 100 µM	> 100 µM	–	–	–	–	–	–	–	–	–	–
COc1ccc(-c2nc(-c3cnccn3)n(C3OC(CO)C(O)C(O)C3O)n2)cc1 (stereo not given)	> 100 µM	> 100 µM	> 100 µM	> 100 µM	> 100 µM	> 100 µM	> 100 µM	> 100 µM	> 100 µM	> 100 µM	–	–	–	–	–	–	–	–	–	–
CC1(C)[C@@H]2CC[C@@]1(C)[C@H](O)[C@@H]2SCc1ccccc1	48.6 µM	> 100 µM	54.3 µM	35.4 µM	34.5 µM	33.2 µM	32.6 µM	32.5 µM	44.9 µM	33 µM	–	–	–	–	–	–	–	–	–	–
CCCCCCCCCCCCCCCCOCC(Cl)COP(=O)(O)OP(=O)(O)OCC1OC(n2cnc3c(N)ncnc32)C(O)C1O (stereo not given)	> 100 µM	> 100 µM	> 100 µM	> 100 µM	> 100 µM	> 100 µM	> 100 µM	> 100 µM	> 100 µM	> 100 µM	–	–	–	–	–	–	–	–	–	–
CC(=O)c1ccc(NC(=O)CSc2nc(C)nc3c2sc(=S)n3-c2ccccc2)cc1	> 3.16 µM	> 10 µM	> 3.16 µM	> 10 µM	> 3.16 µM	> 3.16 µM	> 3.16 µM	> 3.16 µM	> 3.16 µM	> 3.16 µM	–	–	–	–	–	–	–	–	–	–
CC1=C2NCN(C)N=C2C(C#N)(C#N)C1(C#N)C#N	> 100 µM	> 100 µM	4.84 µM	36.7 µM	34.9 µM	46.6 µM	> 76.6 µM	33.9 µM	> 100 µM	> 100 µM	–	–	–	–	–	–	–	–	–	–
Cc1ccc2c(c1)CC1(C2=O)[C@H](c2ccccc2)C2C(=O)c3ccc(C)cc3C2[C@H]1c1ccccc1 (stereo not given in full)	> 100 µM	> 100 µM	> 100 µM	> 100 µM	> 100 µM	> 100 µM	> 100 µM	> 100 µM	> 100 µM	> 100 µM	–	–	–	–	–	–	–	–	–	–
COc1ccc(/C=C2\CCC(CNc3ccc(Br)cc3)C2=O)cc1 (stereo not given)	> 100 µM	> 100 µM	> 100 µM	> 100 µM	> 100 µM	> 100 µM	> 100 µM	> 100 µM	> 100 µM	> 100 µM	–	–	–	–	–	–	–	–	–	–
Cc1ccc(/C=C2\CN(C)CC3C2=NC(=S)NC3c2ccc(C)cc2)cc1 (stereo not given)	> 100 µM	> 100 µM	> 100 µM	> 100 µM	> 100 µM	45.1 µM	> 100 µM	> 100 µM	> 100 µM	> 100 µM	–	–	–	–	–	–	–	–	–	–
